Results reported in paper PMC10412585 (Nature Communications, 2023).
“Also recorded” adds a separate entry of the source. Like-named read-outs stand apart in the source and are kept apart here.

What was measured:
Type in all cases: cell-based, human
HLA-E = HLA-E surface stabilization assay with RMA-S/HLA-E cells; conditions: peptide 3-300 µM (Fig. 3: 30 µM) in OptiMEM, 16 h, 37 °C, anti-HLA-E 3D12, flow cytometry, n = 4 replicate experiments
Method: To probe top-predicted proteome-derived peptides (Tables 2 and 3) for HLA-E binding, we assessed their ability to stabilize surface-expressed HLA-E on RMA-S/HLA-E cells, a TAP-deficient mouse cell line engineered to express HLA-E and human β2M (Fig. 3 and Supplemental Fig. 8)[47].
Fig. 3 Peptide stabilization of HLA-E surface expression. Assessment of peptide-HLA-E binding via HLA-E surface stabilization assay with RMA-S/HLA-E cells incubated with 30 μM peptide. HLA-E expression is detected with an anti-HLA-E antibody. Measurements from n = 4 replicate experiments are shown, with solid black lines indicating mean values. […] Source data are provided as a Source Data file.
RMA-S/HLA-E cells were incubated with serial dilutions of peptides (3–300 µM, Genscript) in OptiMEM (ThermoFisher) for 16 h at 37 °C. Cells were washed with PBS, stained for HLA-E (Clone 3D12, Biolegend, 1:200 dilution) for 15 min at room temperature and analyzed by flow cytometry (analysis in FlowJo version 10). Peptide UBAC2_275-279 was ordered as a 5mer peptide (WNRLF) given the similarity with other WN peptides and hypothesis of a truncated peptide binding in the HLA-E groove. […] Measurements from replicate experiments are plotted in Fig. 3 and Supplemental Fig. 8.

NKG2A+/NKG2C- NK cells = experiment: NK cell activation assay with peptide-pulsed K562/HLA-E cells, NKG2A+/NKG2C- NK cells; conditions: K562/HLA-E target cells, 300 µM peptide ([…] µM BFAR263-271), E:T 2:1, 6 h; degranulation (CD107a), IFN-γ, TNF, CCL3; flow cytometry
Method: (§1) We hypothesized that our predicted proteome-derived peptides could affect NK cell activation through interactions with CD94/NKG2A and CD94/NKG2C. To investigate, we performed cell-based activation assays on primary NK cells (Fig. 4A). NK cells were co-incubated with peptide-pulsed HLA-E-expressing K562 cells, as described previously. The parental K562 human myelogenous leukemia cell line is a typical target to measure NK cell cytotoxicity and activation, allowing for assessment of both NKG2A-mediated inhibition and NKG2C-mediated activation. […] NKG2A^-/NKG2C^- NK cells served as internal control as these should be unaffected by peptide-HLA-E complexes (Supplemental Fig. 12).
(§2) Fig. 4 NK cell stimulation assays. Assessment of effects of peptides on NK cell activity through incubation of NK cells, peptides, and (A) K562/HLA-E or (B) RMA-S/HLA-E target cells. […] Replicates for individual peptides are from different donors, with solid black lines indicating mean values. […] Representative gating for NKG2A^+/NKG2C^- and NKG2A^-/NKG2C^+ NK cells is shown in Supplemental Fig. 14. Source data are provided as a Source Data file.
(§3) All analyses of human data were carried out in compliance with the relevant ethical regulations. Healthy blood donors gave informed consent at DRK Blutspendedienst Nord-Ost, Dresden, Germany, and buffy coats were obtained as approved by Charité ethics committee (EA4/059/17). PBMCs were isolated from human CMV-seropositive buffy coats by density centrifugation over Ficoll Paque Plus (GE Healthcare) and screened for the presence of NKG2C^+ NK cell expansions by flow cytometry to have sufficient frequencies of single-positive cells for parallel assessment of activation and inhibition via HLA-E[47]. Total NK cells from donors with NKG2C^+ expansions (>10% NKG2A^-/NKG2C^+ NK cells) were enriched with CD56 microbeads (Miltenyi Biotec) and cryopreserved in FBS with 10% v/v DMSO. After thawing, NK cells were washed with complete medium, stained with antibodies and Fixable Viability Dye eFluor 780 (Thermo Fisher) for 15 min at 4 °C in PBS, sorted as viable CD56^+ CD3^− cells, and rested in complete media overnight. […] Brefeldin A and Monensin (BD Biosciences) were added after a 1 h culture period. After an additional 5 h, the stimulation was stopped by centrifugation at 4 °C. Cells underwent surface staining, followed by fixation and intracellular staining using Inside Stain Kit (Miltenyi Biotec). Samples were analyzed by flow cytometry on an LSR Fortessa (BD Biosciences). Inhibition of NKG2A^+ NK cells and activation of NKG2C^+ NK cells was assessed by gating on the respective single-positive populations (Supplemental Fig. 14). Antibodies are listed in Supplemental Table 1: anti-human CD56 PE/Dazzle 594 (1:200 dilution), CD3 APC-eFluor 780 (1:50 dilution), anti-human CD159a (NKG2A) Biotin REAfinity (1:50 dilution), anti-human CD159c (NKG2C) PE REAfinity (1:100 dilution), anti-human CD107a (LAMP-1) Alexa Fluor 488 (1:400 dilution), anti-human IFN-γ PE-Vio 770 REAfinity (1:50 dilution), anti-human TNF-α Brilliant Violet 605 (1:50 dilution), anti-human CCL3 (MIP-1α) REAfinity (1:25 dilution).

NKG2A-/NKG2C+ NK cells = experiment: NK cell activation assay with peptide-pulsed K562/HLA-E cells, NKG2A-/NKG2C+ NK cells; conditions: K562/HLA-E target cells, 300 µM peptide ([…] µM BFAR263-271), E:T 2:1, 6 h; degranulation (CD107a), IFN-γ, TNF, CCL3; flow cytometry
Method: as §1, §2, §3

NKG2C+ NK cells = experiment: NK cell activation assay with peptide-pulsed RMA-S/HLA-E cells; conditions: for average percent CD107a+: NKG2C+ NK cells with RMA-S/HLA-E cells, Fig. 4B, stated in author rebuttal
Method: as §2
In contrast to K562 cell lines which are targets for human NK cells, RMA-S cells (a TAP-deficient mouse cell line)[48] are inert to human NK cells and thus will not activate NK cells absent engagement of an activating receptor on the NK cells. […] We performed additional NK cell activation assays with RMA-S/HLA-E cells (Fig. 4B).
as §3

[1] = RMA-S/HLA-E target cells, 300 µM peptide ([…] µM BFAR263-271), E:T 2:1, 6 h, flow cytometry, n = 3 (n = 2 for some) donors

Substance: FLPNRSLLF [SLC52A3_354-362, human peptide from Solute carrier family 52, riboflavin transporter, member 3]
- stabilization of HLA-E surface expression (HLA-E): strong binding that is weaker than VMAPRTLFL; also recorded: strong stabilization
- inhibitory effects on NKG2A+ cells (NKG2A+/NKG2C- NK cells): more moderate inhibitory effects
- activating effects on NKG2C+ cells (NKG2A-/NKG2C+ NK cells): strong activating effects
- NKG2C-mediated NK cell activation (NKG2C+ NK cells): activation similar to the weaker positive control ([…]) or between the two positive controls

Substance: TLPKRGLFL [AKAP6_388-396, human peptide from A-kinase anchor protein 6]
- stabilization of HLA-E surface expression (HLA-E): strong binding that is weaker than VMAPRTLFL; also recorded: strong stabilization
- inhibitory effects on NKG2A+ cells (NKG2A+/NKG2C- NK cells): more moderate inhibitory effects
- activating effects on NKG2C+ cells (NKG2A-/NKG2C+ NK cells): strong activating effects
- NKG2C-mediated NK cell activation (NKG2C+ NK cells; [1]): activation at the level of the strongest positive control binder (VMAPRTLFL)

Substance: WNRILPNAY [library-derived WN 9mer peptide (P1 Trp, P2 Asn)]
- stabilization of HLA-E surface expression (HLA-E): did not stabilize HLA-E surface

Substance: VMADKSIFY [OR5D14_88-96, human peptide from Olfactory receptor 5D14]
- stabilization of HLA-E surface expression (HLA-E): no detectable binding; also recorded: no stabilizing effects

Substance: VMPGRTLCF [TACR3_226-234, human peptide from Neuromedin-K receptor]
- stabilization of HLA-E surface expression (HLA-E): HLA-E stabilization matching VMAPRTLFL peptide; also recorded: strong stabilization
- inhibitory effects on NKG2A+ cells (NKG2A+/NKG2C- NK cells): strong inhibitory effects
- activating effects on NKG2C+ cells (NKG2A-/NKG2C+ NK cells): strong activating effects
- NKG2C-mediated NK cell activation (NKG2C+ NK cells): activation similar to the weaker positive control ([…]) or between the two positive controls

Substance: RMPPRSVLL [INTS1_260-268, human peptide from Integrator complex subunit 1]
- stabilization of HLA-E surface expression (HLA-E): HLA-E stabilization matching VMAPRTLFL peptide; also recorded: strong stabilization
- inhibitory effects on NKG2A+ cells (NKG2A+/NKG2C- NK cells): strong inhibitory effects
- activating effects on NKG2C+ cells (NKG2A-/NKG2C+ NK cells): strong activating effects

Substance: TAPARTMFL [PISD55-63, human peptide from Phosphatidylserine decarboxylase proenzyme, mitochondrial]
- stabilization of HLA-E surface expression (HLA-E): strong binding that is weaker than VMAPRTLFL; also recorded: strong stabilization
- inhibitory effects on NKG2A+ cells (NKG2A+/NKG2C- NK cells): minimal inhibitory effects
- activating effects on NKG2C+ cells (NKG2A-/NKG2C+ NK cells): clear activating effects
- NKG2C-mediated NK cell activation (NKG2C+ NK cells): detectable activation, though below both positive control examples
- average percent CD107a+ (NKG2C+ NK cells): 7.8%

Substance: NMPARTVLF [MTREX490-498, human peptide from Exosome RNA helicase MTR4]
- stabilization of HLA-E surface expression (HLA-E): strong binding that is weaker than VMAPRTLFL; also recorded: strong stabilization
- inhibitory effects on NKG2A+ cells (NKG2A+/NKG2C- NK cells): strong inhibitory effects
- activating effects on NKG2C+ cells (NKG2A-/NKG2C+ NK cells): strong activating effects
- NKG2C-mediated NK cell activation (NKG2C+ NK cells; [1]): detectable activation, though below both positive control examples

Substance: VMPPRTLLL [HLA-A3-11, human peptide from HLA class I histocompatibility antigen]
- stabilization of HLA-E surface expression (HLA-E): HLA-E stabilization matching VMAPRTLFL peptide; also recorded: strong stabilization
- inhibitory effects on NKG2A+ cells (NKG2A+/NKG2C- NK cells): strong inhibitory effects
- activating effects on NKG2C+ cells (NKG2A-/NKG2C+ NK cells): strong activating effects
- NKG2C-mediated NK cell activation (NKG2C+ NK cells): activation similar to the weaker positive control ([…]) or between the two positive controls

Substance: TLPERTLYL [ECEL1_269-277, human peptide from Endothelin-converting enzyme-like 1]
- stabilization of HLA-E surface expression (HLA-E): HLA-E stabilization matching VMAPRTLFL peptide; also recorded: strong stabilization
- inhibitory effects on NKG2A+ cells (NKG2A+/NKG2C- NK cells): strong inhibitory effects
- activating effects on NKG2C+ cells (NKG2A-/NKG2C+ NK cells): strong activating effects
- NKG2C-mediated NK cell activation (NKG2C+ NK cells): activation similar to the weaker positive control ([…]) or between the two positive controls

Substance: VMGDRSVLY [EMC1_725-733, human peptide from ER membrane protein complex subunit 1]
- stabilization of HLA-E surface expression (HLA-E): no detectable binding; also recorded: no stabilizing effects

Substance: VMAPRTLIL [canonical signal peptide / CMV UL40-derived HLA-E ligand; positive control, reference compound]
- NKG2C-mediated NK cell activation (NKG2C+ NK cells; [1]): weaker positive control

Substance: WNRILP [length variant of WN peptide]
- stabilization of HLA-E surface expression (HLA-E): did not stabilize HLA-E surface

Substance: VMAPQSLLL [negative control peptide, reference compound]
- NKG2C-mediated NK cell activation (NKG2C+ NK cells): Minimal activation
- average percent CD107a+ (NKG2C+ NK cells): 1.1%

Substance: WNRLF [UBAC2_275-279, UBAC2 peptide ordered and tested as a 5mer peptide (WNRLF)]
- stabilization of HLA-E surface expression (HLA-E): no detectable binding; also recorded: no stabilizing effects

Substance: WNRILPNA [length variant of WN peptide]
- stabilization of HLA-E surface expression (HLA-E): did not stabilize HLA-E surface

Substance: SVPLKTRFL [UL120_71-79, BE/33/2010, divergent UL120 peptide of CMV strain BE/33/2010]
- stabilization of HLA-E surface expression (HLA-E): weaker but detectable stabilization
- inhibitory effects on NKG2A+ cells (NKG2A+/NKG2C- NK cells): minimal effects
- activating effects on NKG2C+ cells (NKG2A-/NKG2C+ NK cells): minimal effects

Substance: WNRIL [length variant of WN peptide]
- stabilization of HLA-E surface expression (HLA-E): did not stabilize HLA-E surface

Substance: WNRILPN [length variant of WN peptide]
- stabilization of HLA-E surface expression (HLA-E): did not stabilize HLA-E surface

Substance: TGAARSFFF [UL102_292-300, CMV peptide from DNA helicase/primase complex-associated protein]
- stabilization of HLA-E surface expression (HLA-E): no detectable binding; also recorded: no stabilizing effects

Substance: ILTDRSLWL [FBXO41_670-678, human peptide from F-box only protein 41]
- stabilization of HLA-E surface expression (HLA-E): strong binding that is weaker than VMAPRTLFL; also recorded: strong stabilization
- inhibitory effects on NKG2A+ cells (NKG2A+/NKG2C- NK cells): more moderate inhibitory effects
- activating effects on NKG2C+ cells (NKG2A-/NKG2C+ NK cells): strong activating effects
- NKG2C-mediated NK cell activation (NKG2C+ NK cells; [1]): activation at the level of the strongest positive control binder (VMAPRTLFL)
